Data reported in patent US20090105217A1, “2-PHENYL-5-AMINO-1,3,4-OXADIAZOLES AND THEIR USE AS NICOTINIC ACETYLCHOLINE RECEPTOR LIGANDS” (priority 2007, published 2009).
Counter-ions that a name gives are not always drawn.

Target: T1, human α7 nAChR (Homo sapiens, UniProt P36544)
T1 construct: host or cells: GH4C1 cells (pituitary tumor, immortalized cell line)
Assay: α7 nAChR FLIPR (Fluorometric Imaging Plate Reader) Ca2+ assay, agonist EC50
Type: cell-based
Conditions: GH4C1 cells stably transfected with human α7 nAChR; Fluo-4 Ca2+ fluorescence; Examples 194 to 205 tested as the HCl salt; read-out: pEC50 value (negative logarithm of the agonist EC50) (converted)
Experimental: α7 nAChR FLIPR® (Fluorometric Imaging Plate Reader) Assay
Function of the heterologous expressed α7 nAChR was assessed by a FLIPR-Ca^2+ assay. Since nAChRs are non-selective cation channels with high permeability to Ca^2+, these studies were carried out by measuring changes of intracellular Ca^2+ concentration using the Ca^2+-chelating fluorescent dye Fluo-4 and FLIPR® (Fluorometric Imaging Plate Reader) technology.
GH4C1cells (pituitary tumor, immortalized cell line) stably transfected with human α7 nAChR (Biocat ID 96986), were thawed, suspended in growth medium (Ham's Nutrient Mixture F10—Ham's F10, Invitrogen 31550-023, 15% Horse Serum heat inactivated—Invitrogen 26050-047, 2.5% Foetal Bovine Serum—FBS, Gibco 10500-064, 200 μg/ml Hygromycin B—Invitrogen, 10687-010, 10 mg/L Phenol Red—Sigma, P 0290, 1 mM Glutamine—Invitrogen, 25030-024) and plated in 500 cm^2 Triple Flask.
Cells were then incubated at 30° C., 5% CO2 for 72 hours.
On the day of the experiment, cells were washed twice with Assay Buffer (AB) (145 mM NaCl, 5 mM KCl, 1 mM MgCl2, 2 mM CaCl2, 20 mM HEPES, 5.5 mM Glucose pH=7.3) containing 2.5 mM Probenecid. Changes in the intracellular Ca^2+ content of stably transfected cells were measured using the Ca^2+ chelating dye Fluo-4 (Tef Labs 0152) in conjunction with a FLIPR® (Molecular Devices). The cell permeant dye Fluo-4 was prepared to a concentration of 1 mM in 100% DMSO and 10% Pluronic acid. The dye was then diluted with AB to a final concentration of 2 μM and placed on the cells. After 45-60 minutes dye loading incubation at 37° C., the unincorporated dye was removed from the cells by washing (80 μL, 3 times) with AB, and a final volume of 30 μL/well of AB was left in each well.
Plates containing test compounds (dissolved in 100% DMSO at 2 mM and serially diluted with DMSO) were copied into “daughter” plates (1 μL/well dispensation). Just prior to starting the assay, the “daughter” plate was diluted with 50 μL/well of AB.
The plates were then placed in the FLIPR®, and cell fluorescence was determined before drug addition (30 seconds) and monitored (excitation 488 nm, emission 510-580 nm) immediately following exposure to compounds. Maximum fluorescence values were recorded and fitted for agonist EC50 calculations.
The results are expressed as pEC50 values. A pEC50 is the negative logarithm of the agonist EC50 calculation as determined in the α7 nAChR FLIPR® assay. […] Variations in pEC50 may arise between tests.

T1 sequence (P36544 23-502): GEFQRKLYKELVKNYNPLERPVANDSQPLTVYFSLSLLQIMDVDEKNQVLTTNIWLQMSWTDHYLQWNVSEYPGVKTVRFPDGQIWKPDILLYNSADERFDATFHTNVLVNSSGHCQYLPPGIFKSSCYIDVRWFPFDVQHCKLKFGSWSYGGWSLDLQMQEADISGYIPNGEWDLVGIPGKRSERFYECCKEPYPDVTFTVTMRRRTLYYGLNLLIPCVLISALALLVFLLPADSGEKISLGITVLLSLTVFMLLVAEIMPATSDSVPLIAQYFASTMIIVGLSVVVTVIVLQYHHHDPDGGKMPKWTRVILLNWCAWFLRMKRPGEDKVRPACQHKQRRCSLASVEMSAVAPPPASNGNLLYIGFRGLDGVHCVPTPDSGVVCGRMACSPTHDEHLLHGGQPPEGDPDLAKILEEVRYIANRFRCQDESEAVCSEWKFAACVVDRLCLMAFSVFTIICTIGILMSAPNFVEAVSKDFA

Row | Structure (SMILES) | EC50 [µM]
1 | COc1cc(NC(=O)C2CCCCC2)ccc1-c1nnc(NCCCN2CCCCC2)o1 [Example 28, N-[3-(methyloxy)-4-(5-{[3-(1-piperidinyl)propyl]amino}-1,3,4-oxadiazol-2-yl)phenyl]cyclohexanecarboxamide] | ≤ 1
2 | O=C(Nc1ccc(-c2nnc(NCCCCN3CCCC3)o2)cc1)C1CCCCC1 [Example 147, N-[4-(5-{[4-(1-pyrrolidinyl)butyl]amino}-1,3,4-oxadiazol-2-yl)phenyl]cyclohexanecarboxamide] | ≤ 0.1
3 | O=C(Nc1ccc(-c2nnc(NCCCN3CCCCC3)o2)cc1)c1ccsc1 [Example 10, N-[4-(5-{[3-(1-Piperidinyl)propyl]amino}-1,3,4-oxadiazol-2-yl)phenyl]-3-thiophenecarboxamidehydrochloride] | ≤ 1
4 | CCOc1cc(NC(=O)C2CCCCC2)ccc1-c1nnc(NCCCN2CCCCC2)o1 [Example 189, N-[3-(ethyloxy)-4-(5-{[3-(1-piperidinyl)propyl]amino}-1,3,4-oxadiazol-2-yl)phenyl]cyclohexane-carboxamide] | ≤ 1
5 | CCc1cc(NC(=O)c2ccccc2F)ccc1-c1nnc(NCCCN2CCOCC2)o1 [Example 167, N-[3-ethyl-4-(5-{[3-(4-morpholinyl)propyl]amino}-1,3,4-oxadiazol-2-yl)phenyl]-2-fluorobenzamide] | ≤ 1
6 | COc1cc(NC(=O)C2CCCC2)ccc1-c1nnc(NCCCN2CCOCC2)o1 [Example 234, N-[3-(methyloxy)-4-(5-{[3-(4-morpholinyl)propyl]amino}-1,3,4-oxadiazol-2-yl)phenyl]cyclopentane-carboxamidetrifluoroacetate] | ≤ 1
7 | O=C(Nc1ccc(-c2nnc(NCCCN3CCOCC3)o2)cc1)c1cccc(F)c1 [Example 195, 3-Fluoro-N-[4-(5-{[3-(4-morpholinyl)propyl]amino}-1,3,4-oxadiazol-2-yl)phenyl]benzamide] | ≤ 1
8 | CN1CCCN(CCCNc2nnc(-c3ccc(NC(=O)c4ccccc4F)cc3)o2)CC1 [Example 174, 2-fluoro-N-[4-(5-{[3-(4-methylhexahydro-1H-1,4-diazepin-1-yl)propyl]amino}-1,3,4-oxadiazol-2-yl)phenyl]benzamide] | ≤ 1
9 | CCCC(=O)Nc1ccc(-c2nnc(NCCCN3CCOCC3)o2)c(OC)c1 [Example 199, N-[3-(Methyloxy)-4-(5-{[3-(4-morpholinyl)propyl]amino}-1,3,4-oxadiazol-2-yl)phenyl]butanamide] | ≤ 1
10 | O=C(Nc1ccc(-c2nnc(NCCCCN3CCOCC3)o2)c(Cl)c1)C1CCCCC1 [Example 161, N-[3-chloro-4-(5-{[4-(4-morpholinyl)butyl]amino}-1,3,4-oxadiazol-2-yl)phenyl]cyclohexanecarboxamide] | ≤ 1
11 | COc1cc(NC(=O)c2cccc(F)c2)ccc1-c1nnc(NCCCN2CCOCC2)o1 [Example 204, 3-Fluoro-N-[3-(methyloxy)-4-(5-{[3-(4-morpholinyl)propyl]amino}-1,3,4-oxadiazol-2-yl)phenyl]benzamide] | ≤ 1
12 | Cc1cc(C(=O)Nc2ccc(-c3nnc(NCCCN4CCCCC4)o3)cc2)no1 [Example 183, 5-methyl-N-[4-(5-{[3-(1-piperidinyl)propyl]amino}-1,3,4-oxadiazol-2-yl)phenyl]-3-isoxazolecarboxamide] | ≤ 1
13 | O=C(Nc1ccc(-c2nnc(NCCCCN3CCCC3)o2)c(Cl)c1)C1CCCCC1 [Example 158, N-[3-chloro-4-(5-{[4-(1-pyrrolidinyl)butyl]amino}-1,3,4-oxadiazol-2-yl)phenyl]cyclohexanecarboxamide] | ≤ 0.1
14 | COc1cc(NC(=O)CC(C)C)ccc1-c1nnc(NCCCN2CCOCC2)o1 [Example 229, 3-methyl-N-[3-(methyloxy)-4-(5-{[3-(4-morpholinyl)propyl]amino}-1,3,4-oxadiazol-2-yl)phenyl]butanamidetrifluoroacetate] | ≤ 1
15 | Cc1ccc(C(=O)Nc2ccc(-c3nnc(NCCCN4CCCCC4)o3)cc2)cc1 [Example 181, 4-methyl-N-[4-(5-{[3-(1-piperidinyl)propyl]amino}-1,3,4-oxadiazol-2-yl)phenyl]benzamide] | ≤ 1
16 | O=C(Nc1ccc(-c2nnc(NCCCN3CCCC3)o2)c(C(F)(F)F)c1)C1CCCCC1 [Example 63, N-[4-(5-{[3-(1-pyrrolidinyl)propyl]amino}-1,3,4-oxadiazol-2-yl)-3-(trifluoromethyl)phenyl]cyclohexanecarboxamide] | ≤ 1

The next lines start with the values.

Row | EC50 [µM] | Structure (SMILES)
17 | ≤ 1 | CCc1cc(NC(=O)c2ccccc2F)ccc1-c1nnc(NCCCCN2CCCCC2)o1 [Example 168, N-[3-ethyl-4-(5-{[4-(1-piperidinyl)butyl]amino}-1,3,4-oxadiazol-2-yl)phenyl]-2-fluorobenzamide]
18 | ≤ 0.1 | CCc1cc(NC(=O)c2ccccc2F)ccc1-c1nnc(NCCCCN(CC)CC)o1 [Example 171, N-[4-(5-{[4-(diethylamino)butyl]amino}-1,3,4-oxadiazol-2-yl)-3-ethylphenyl]-2-fluorobenzamide]
19 | ≤ 1 | O=C(Nc1ccc(-c2nnc(NCCCN3CCOCC3)o2)c(C(F)(F)F)c1)c1ccccc1F [Example 86, 2-fluoro-N-[4-(5-{[3-(4-morpholinyl)propyl]amino}-1,3,4-oxadiazol-2-yl)-3-(trifluoromethyl)phenyl]benzamide]
20 | ≤ 1 | CCCC(=O)Nc1ccc(-c2nnc(NCCCN(CC)CC)o2)c(OC)c1 [Example 200, N-[4-(5-{[3-(Diethylamino)propyl]amino}-1,3,4-oxadiazol-2-yl)-3-(methyloxy)phenyl]butanamide]
21 | ≤ 1 | CCN(CC)CCCNc1nnc(-c2ccc(NC(=O)C3CCCC3)cc2OC)o1 [Example 235, N-[4-(5-{[3-(diethylamino)propyl]amino}-1,3,4-oxadiazol-2-yl)-3-(methyloxy)phenyl]cyclo-pentanecarboxamidetrifluoroacetate]
22 | ≤ 0.1 | CCN(CC)CCCCNc1nnc(-c2ccc(NC(=O)c3ccccc3)cc2F)o1 [Example 112, N-[4-(5-{[4-(diethylamino)butyl]amino}-1,3,4-oxadiazol-2-yl)-3-fluorophenyl]benzamide]
23 | ≤ 0.1 | O=C(Nc1ccc(-c2nnc(NCCCCN3CCCC3)o2)c(F)c1)c1ccccc1F [Example 48, 2-fluoro-N-[3-fluoro-4-(5-{[4-(1-pyrrolidinyl)butyl]amino}-1,3,4-oxadiazol-2-yl)phenyl]benzamide]
24 | ≤ 1 | CCN(CC)CCCNc1nnc(-c2ccc(NC(=O)c3ccccc3F)cc2Cl)o1 [Example 155, N-[3-chloro-4-(5-{[3-(diethylamino)propyl]amino}-1,3,4-oxadiazol-2-yl)phenyl]-2-fluorobenzamide]
25 | ≤ 1 | O=C(Nc1ccc(-c2nnc(NCCCN3CCCCC3)o2)c(Cl)c1)c1ccccc1 [Example 105, N-[3-chloro-4-(5-{[3-(1-piperidinyl)propyl]amino}-1,3,4-oxadiazol-2-yl)phenyl]benzamide]
26 | ≤ 1 | CCN(CC)CCCNc1nnc(-c2ccc(NC(=O)C3CC3)cc2OC)o1 [Example 231, N-[4-(5-{[3-(diethylamino)propyl]amino}-1,3,4-oxadiazol-2-yl)-3-(methyloxy)phenyl]cyclopro-panecarboxamidetrifluoroacetate]
27 | ≤ 0.1 | COc1cc(NC(=O)c2ccccc2F)ccc1-c1nnc(NCCCCN2CCC(F)CC2)o1 [Example 145, 2-fluoro-N-[4-(5-{[4-(4-fluoro-1-piperidinyl)butyl]amino}-1,3,4-oxadiazol-2-yl)-3-(methyloxy)phenyl]benzamide]
28 | ≤ 1 | CCN(CC)CCCNc1nnc(-c2ccc(NC(=O)c3cccc(F)c3)cc2)o1 [Example 209, N-[4-(5-{[3-(diethylamino)propyl]amino}-1,3,4-oxadiazol-2-yl)phenyl]-3-fluorobenzamidetrifluoroacetate]
29 | ≤ 0.1 | COc1cc(NC(=O)c2ccccc2)ccc1-c1nnc(NCCCN2CCN3CCC2CC3)o1 [Example 122, N-[4-(5-{[3-(1,4-diazabicyclo[3.2.2]non-4-yl)propyl]amino}-1,3,4-oxadiazol-2-yl)-3-(methyloxy)phenyl]benzamide]
30 | ≤ 0.1 | CCN(CC)CCCCNc1nnc(-c2ccc(NC(=O)c3ccccc3)cc2C(F)(F)F)o1 [Example 96, N-[4-(5-{[4-(diethylamino)butyl]amino}-1,3,4-oxadiazol-2-yl)-3-(trifluoromethyl)phenyl]benzamide]
